Data set [1] deals with Mab strain ATCC 19977 and three clinical isolates (Mab122, Mab686, and UH01). The data set is described as follows: Static concentration time-kill (SCTK) assay. Type of data set: cell-based, Mycobacterium abscessus. The protocol: SCTK studies were conducted over 5 days in Middlebrook 7H9 broth supplemented with 10% (vol/vol) OADC, 0.2% (vol/vol) glycerol, and 0.05% (vol/vol) Tween 80 in duplicate. The efficacy of JDB/NA-1-157 and JDB/NA-208 was evaluated using Mab strain ATCC 19977 and three clinical isolates (Mab122, Mab686, and UH01) at an initial inoculum of 10^5.5–10^6.3 CFU/mL. […] Bacterial killing was assessed across a wide range of concentrations for JDB/NA-1-157 and JDB/NA-1-208 individually (0.0625–64.0 mg/L).
For the combination study, the concentrations of JDB/NA-1-157 and JDB/NA-1-208 were selected based on MIC results and time-killing profiles of the single-drug study, while the concentrations of other β-lactams and BLIs were chosen based on clinically relevant levels, determined from the predicted average unbound steady-state concentrations (fCss,avg) in plasma at clinically relevant doses ([27]). The drug concentrations used were JDB/NA-1-157, 1 mg/L; JDB/NA-1-208, 8 mg/L; imipenem, 12 mg/L; ceftaroline, 8 mg/L; cefuroxime, 8 mg/L; amoxicillin, 2 mg/L; avibactam, 4 mg/L; durlobactam, 12 mg/L; amikacin, 12 mg/L; clarithromycin, 0.3 mg/L; and cefoxitin, 7 mg/L. The SOC regimen was included for comparison of efficacy. On day 3, the broth was replaced with fresh broth containing the corresponding drug concentrations. For viable cell counts, 100 µL of undiluted or appropriately diluted samples was subcultured on Middlebrook 7H10 agar plates supplemented with 1% (vol/vol) OADC, 0.2% glycerol, and 0.05% (vol/vol) Tween 80. All samples were washed twice with sterile 0.9% saline prior to serial dilution or plating.

The target of the next data set is PBP B (Mycobacteroides abscessus, UniProt B1MP31). The data set is described as follows: Apparent inhibition constant (nitrocefin, Dixon plot). Type of data set: biochemical. The following applies: PBP B. The method, then: Steady-state kinetic studies with JDB/NA-1-157 and JDB/NA-1-208 were performed using purified LDTs and PBPs, including LDT1–5, PBP-B, PBP-lipo, and D,D-carboxypeptidase. The assays were conducted on a BioTek Synergy2 multimode reader equipped with Gen5 software. To determine the Michaelis constant (Km^NCF) for each LDT and PBP, a wide range of NCF concentrations was tested, while the enzyme concentrations were fixed. Absorbance changes at 482 nm were monitored over 10 min. Steady-state kinetic parameters (Vmax and Km) were derived by fitting the experimental data to the Henri–Michaelis–Menten equation using nonlinear least-squares regression in GraphPad Prism version 9. The reaction velocity (v) at a given substrate concentration ([S]) was calculated using equation 2: […]
Chain of PBP B (B1MP31 entry or part of it): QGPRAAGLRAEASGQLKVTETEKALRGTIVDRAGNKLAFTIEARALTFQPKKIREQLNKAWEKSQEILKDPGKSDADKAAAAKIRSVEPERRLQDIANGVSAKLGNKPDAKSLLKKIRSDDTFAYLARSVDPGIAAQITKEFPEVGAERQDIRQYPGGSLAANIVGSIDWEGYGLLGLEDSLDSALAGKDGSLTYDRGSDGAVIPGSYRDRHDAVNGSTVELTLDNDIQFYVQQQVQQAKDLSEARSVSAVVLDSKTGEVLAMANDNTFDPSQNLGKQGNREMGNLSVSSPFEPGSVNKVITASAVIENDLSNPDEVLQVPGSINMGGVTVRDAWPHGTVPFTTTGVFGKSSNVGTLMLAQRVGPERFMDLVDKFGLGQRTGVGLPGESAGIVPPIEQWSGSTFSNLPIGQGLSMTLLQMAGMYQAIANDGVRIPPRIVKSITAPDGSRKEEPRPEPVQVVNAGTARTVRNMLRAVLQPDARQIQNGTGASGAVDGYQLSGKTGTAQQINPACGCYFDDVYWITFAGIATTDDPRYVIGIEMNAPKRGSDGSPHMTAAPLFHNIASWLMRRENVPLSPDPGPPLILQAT
The apparent inhibition constants (Ki,app) for JDB/NA-1-157 and JDB/NA-1-208 were determined under the following conditions: an NCF concentration of 5 × Km, fixed concentrations of LDT or PBP enzymes, and varying concentrations of JDB/NA-1-157 and JDB/NA-1-208. Absorbance changes at 482 nm were monitored over a 30 min period for each inhibitor concentration. The data were linearized using a Dixon plot, which involves plotting the reciprocal of the absorbance change (1/ΔA) against the concentrations of JDB/NA-1-157 or JDB/NA-1-208. Apparent Ki,app values were derived from the intersection points on the Dixon plot and were subsequently corrected for substrate concentration and enzyme affinity using equation 3:
(3) Ki,app=observed Ki,app/1+[NCF]/Km NCF.

Another data set has as its system Mab ATCC 19977. The data set is described as follows: MIC testing against Mab ATCC 19977, single agent and combinations. Format: cell-based, Mycobacterium abscessus. The protocol:
MICs were determined in duplicate following Clinical Laboratory Standards Institute ([52]) guidelines using Middlebrook 7H9 broth supplemented with 10% (vol/vol) oleic acid-albumin-dextrose-catalase (OADC) and 0.05% (vol/vol) Tween 80, with an inoculum of 5 × 10⁵ CFU/mL. MIC testing of two C5α-substituted carbapenems was conducted both individually and in combination with cephalosporins (cefuroxime and ceftaroline), penicillins (amoxicillin), or BLIs (avibactam or durlobactam + sulbactam). Avibactam, durlobactam, cefuroxime, ceftaroline, and amoxicillin were fixed at concentrations of 4, 1, 2, 4, and 4 mg/L, respectively. […] The MIC was defined as the lowest antibiotic concentration that inhibited visible bacterial growth following 48 h of incubation at 30°C.

Data set [2] can be described thus: Thermal stability in 7H9 broth at 30°C. The following applies: for Degradation percentage / degradation after 24 h: 7H9 broth, 30°C; for Degradation percentage: 24 h; for degradation after 24 h: 50 mg/L and 10 mg/L (Fig. S2); for half-life: buffer. The method, then:
The stability of the two compounds in 7H9 broth was assessed at 30°C at drug concentrations of 10, 50, and 100 mg/L, with each condition tested in triplicate. Absorbance at 240 nm was measured every 2 h over a 24 h period using a BioTek Synergy2 multimode reader, with data analyzed via Gen5 software to monitor degradation or changes in stability. To evaluate the impact of thermal instability, MIC tests were performed using Mab ATCC 19977. Compounds were tested at time points of 0 h (no incubation) and 6, 24, and 48 h of incubation at 30°C. Imipenem and meropenem, known to be thermally unstable β-lactams, were included as positive controls. The MIC results were recorded after 48 h of incubation. Detailed MIC testing protocols were identical to those described below.

Setting [3] is: Mycobacteroides abscessus, ATCC19977, 48 h, alone (single agent), read-out: MIC.

pKi: −log10 of the molar value. Where “and” joins values, the source holds several entries; their conditions need not be identical. Identical values can stand only once. Like-named read-outs stand apart in the source and are kept apart here. Bounds are passed on as bounds.

Experimental findings from article PMC12326981, “Novel C5α-substituted carbapenems enhance Mycobacterium abscessus killing via selective target binding and reduced hydrolysis by BlaMab” (Antimicrobial Agents and Chemotherapy, 2025) are described below.

As usually defined, the pKi is −log10 of the Ki, conventionally taken in molar units. As a reminder, the MIC is the lowest concentration found to suppress growth. Usually half-life stands for the time in which the quantity being followed falls by half.

With `C[C@@H](O)[C@H]1C(=O)N2C(C(=O)O)=C(S[C@@H]3CN[C@H](C(=O)N(C)C)C3)C[C@]12C` [JDB/NA-1-157], the “bacterial killing in combination” value in data set [1] (1 mg/L with BLIs (avibactam or durlobactam) or β-lactams (cefuroxime, ceftaroline, or amoxicillin), by day 3, ATCC 19977, Mab122, Mab686) is on record as “near-complete eradication”. In addition, the “bacterial killing on addition of avibactam” value in data set [1] (ATCC 19977, JDB/NA-1-157 1 mg/L + avibactam 4 mg/L) is given as “up to 2.5 log10 CFU/mL”. In data set [1] (single agent, 4 mg/L, over 5 days, ATCC 19977 and clinical isolates), the “log10 CFU/mL reduction” value was 1.5–2.0 log10 CFU/mL. In data set [1] (single agent, 16–64 mg/L, 5 days), the “bacterial killing at high concentration” value is “near-complete eradication”. Further, the pKi on PBP B (Ki,app) is 5.31. Moreover, the MIC is 0.125 µg/mL in the data set with Mab ATCC 19977 (+AMX (4 mg/L) + AVI (4 mg/L)); 0.5 µg/mL in the data set with Mab ATCC 19977 (+AVI (4 mg/L)); 0.125 µg/mL in the data set with Mab ATCC 19977 (+CFT (4 mg/L)); 0.125 µg/mL in the data set on Mab ATCC 19977 (+CXM (2 mg/L)); 0.25 µg/mL with Mab ATCC 19977 (+DUR (1 mg/L)); 0.5 µg/mL in the data set on Mab ATCC 19977 (setting [3]). In addition, the “fold reduction in MIC on combination” value with Mab ATCC 19977 (combined with cefuroxime, ceftaroline, or amoxicillin (with avibactam), Table 1, Fig. 3) is reported as at most 4 fold. The Degradation percentage in data set [2] (10 mg/L) is 11.9%; in data set [2] (50 mg/L) it was 16.2%; in data set [2] (100 mg/L), 16% and 16.6%. Further, the “degradation after 24 h” value in data set [2] is 16%. The half-life in data set [2] was 50 h.

For `CC[C@]12CC(S[C@@H]3CN[C@H](C(=O)N(C)C)C3)=C(C(=O)O)N1C(=O)[C@@H]2[C@@H](C)O` [JDB/NA-1-208], the “effect of combining with avibactam on killing” value in data set [1] (8 mg/L + avibactam 4 mg/L) was “no significant effect”. Besides, in data set [1] (8 mg/L with ceftaroline, cefuroxime, amoxicillin (with avibactam), or durlobactam), the “bacterial killing in combination” value was “near-complete eradication”. Also, the “log10 CFU killing” value in data set [1] (single agent, 64 mg/L) is ~ 3 log10 CFU. Besides, the Ki on PBP B (read-out: Ki,app (converted)) is 0.0805 µM. Also, the MIC in the data set with Mab ATCC 19977 (+AMX (4 mg/L) + AVI (4 mg/L)) was at most 0.0313 µg/mL; in the data set with Mab ATCC 19977 (+AVI (4 mg/L)), 32 µg/mL; with Mab ATCC 19977 (+CFT (4 mg/L)), 4 µg/mL; in the data set on Mab ATCC 19977 (+CXM (2 mg/L)) it was 8 µg/mL; in the data set with Mab ATCC 19977 (+DUR (1 mg/L)), 32 µg/mL; in the data set on Mab ATCC 19977 (setting [3]), 32 µg/mL. Further, the Degradation percentage in data set [2] (10 mg/L) is 0.6%; in data set [2] (50 mg/L) it was 10.5%. Moreover, the “degradation after 24 h” value in data set [2] is recorded as “approximately 10%”. Also, the half-life in data set [2] was 66 h.
